# Where two headings read alike, the source gives them in different places.
# Key:
# MRC-5 = experiment: MTT cytotoxicity assay, monolayer culture; format: cell-based, human; conditions: non-malignant cell line, read-out: IC50 (μM) ± S.D. MRC-5
# Text: (§1) The cytotoxicity of metal-free indolobenzazocines HL^1–HL^5 and their metal complexes 1a, 1b, and 2–5 was investigated by the colorimetric MTT assay in a panel of four human cancer cell lines, namely, human colon carcinoma HCT116 and LS-174, breast adenocarcinoma MDA-MB-361, and lung adenocarcinoma A549, as well as in human non-malignant cell line MRC-5 maintained as monolayer culture. Cisplatin or cis-diamminedichloridoplatinum(II) (CDDP), a well-known chemotherapeutic agent, was used as a positive control. The results obtained after 72 h of continuous drug action are presented as IC50 values (μM) in Table 1.
# (§2) Human tumor cell lines derived from human colorectal carcinoma, LS-174 and HCT116, human breast adenocarcinoma, MDA-MB-361, human lung adenocarcinoma, A549, and non-tumor human fetal lung fibroblast cell line, MRC-5, were maintained as a monolayer culture in the Roswell Park Memorial Institute (RPMI) 1640 nutrient medium (Sigma Chemicals Co, USA). RPMI 1640 medium was prepared in sterile ionized water, supplemented with penicillin (100 IU/mL), streptomycin (200 μg/mL), 4-(2-hydroxyethyl) piperazine-1-ethanesulfonic acid (HEPES) (25 mM), L-glutamine (3 mM), and 10% of heat-inactivated fetal calf serum (FCS) (pH = 7.2). The cells were grown at 37 °C in a humidified atmosphere containing 5% CO2.
# (§3) Cells were seeded into 96-well culture plates (Thermo Scientific Nunc) at cell densities of 5000 cells per well (HCT116, A549, and MRC-5) and 8000 cells/well (LS-174 and MDA-MB-361) in 100 μL of cell culture medium and left overnight. Eleven tested compounds were dissolved in DMSO to the stock concentration of 20 mM immediately before the experiment, whereas further dilutions were made in the culture medium so that the final concentration of DMSO never exceeded 1% (v/v). Cisplatin (cis-diamminedichloridoplatinum(II), CDDP) was used as a reference compound. After 72 h of continuous incubation, MTT solution (3-(4.5-dimethylthiazol-2-yl)-2.5-diphenyltetrazolium bromide, Sigma-Aldrich) was added to each well (5 mg/mL).[63] The culture plates were incubated at 37 °C for the next 4 h, and finally, 10% sodium dodecyl sulfate (SDS) was added to dissolve formed formazan crystals. Absorbances were measured after 24 h on a microplate reader (Thermo Labsystems Multiscan EX 200–240 V) at a wavelength of 570 nm.
# A549 = experiment: MTT cytotoxicity assay, monolayer culture; format: cell-based, human; conditions: 2D monolayer, read-out: IC50 (μM) ± S.D. A549
# Text: as §1, §2, §3
# LS-174 = experiment: MTT cytotoxicity assay, monolayer culture; format: cell-based, human; conditions: 2D monolayer, read-out: IC50 (μM) ± S.D. LS-174
# Text: as §1, §2, §3
# [1] = Stability in aqueous solution containing 1% DMSO by UV-vis spectroscopy; format: physicochemical; conditions: over 48 h
# Description: The stability of ligands HL^2 and HL^3 in aqueous solution containing 1% DMSO over 24 and 48 h was monitored by UV–vis spectroscopy (Figure S30 in the Supporting Information). Similarly, the behavior of complexes 1a and 1b as well as 2 and 3 was investigated in aqueous solutions containing 1% DMSO over 12 and 48 h by optical spectroscopy (Figures S31 and S32). […] High thermodynamic and kinetic stability of five-coordinate complexes reported herein can presumably be explained in terms of hard and soft acids and bases theory. Cu^2+ as a borderline metal ion is expected to bind to a soft base, for example, S atom instead of terminal N atom, as is the case for thiosemicarbazides. However, the hard–soft character of the metal ion might be altered by the other ligands attached due to symbiotic effects.[30] This might be the case herein, where bonding of copper(II) to four hard base ligands, namely, to two N atoms (N7 and N15 in Figure 1) and two Cl^– co-ligands, as well as to one borderline base N(pyridine) atom, can reduce the softness of Cu^2+, leading to increased stability of the complexes.
# [2] = Solubility in water/1% DMSO; format: physicochemical
# HCT116 = experiment: MTT cytotoxicity assay, monolayer culture; format: cell-based, human; conditions: 72 h continuous drug action, 2D monolayer, read-out: IC50 (μM) ± S.D. HCT116
# Text: as §1, §2, §3
# MDA-MB-361 = experiment: MTT cytotoxicity assay, monolayer culture; format: cell-based, human; conditions: 72 h continuous drug action, 2D monolayer, read-out: IC50 (μM) ± S.D. MDA-MB-361
# Text: as §1, §2, §3
# HCT116 MCTS = experiment: MTT assay in 3D multicellular tumor spheroid (MCTS) model; format: cell-based, human; conditions: 3D MCTS, 72 h continuous drug action, read-out: IC50 (μM) ± S.D. HCT116, 3D cell culture model
# Text: (§4) Due to the complex tissue environment, 3D multicellular tumor spheroid (MCTS) models mimic the in vivo architecture closer than 2D cell cultures, thereby allowing more precise prediction of effectiveness of organic drug candidates as well as metal-based ones in animal models.[41]−[44] The efficacy of HL^5, 5, and cisplatin in the 3D MCTS model was investigated in two human colorectal cancer cell lines (CRC) LS-174 and HCT116. We used ultra-low attachment (ULA) plates for the growth of spheroids. Spheroids were incubated for 72 h and then photographed, and IC50 values were determined using MTT assay. Tumor spheroids of diameter >500 μm selected for treatment reflect to a certain extent the tumor complexity as they are composed of several specialized areas and layers where cells show different phenotypic, functional, and metabolic behaviors.[45] They display an organized architecture with an external layer composed of proliferating cells, an intermediate zone composed of quiescent and senescent cells, and an inner apoptotic and necrotic core which is the result of the reduced distribution of nutrients and oxygen in these areas.[46],[47]
# (§5) The MCTSs as 3D cell culture models were established by seeding cells at optimized densities between 500 and 1500 cells/well in the ultra-low attachment (ULA) U96-well plate Thermo Scientific Nunclon Sphera in their respective culture media.[34] […]
# LS-174 MCTS = experiment: as above; format: cell-based, human; conditions: 3D MCTS, 72 h continuous drug action, read-out: IC50 (μM) ± S.D. LS-174, 3D cell culture model
# Text: as §4, §5
# HCT116 cells = experiment: Annexin V-FITC/PI apoptosis assay by flow cytometry; format: cell-based, human; conditions: HCT116, 48 h, 3× IC50; non-treated control 2.29%
# Text: The obtained experimental data are presented in Figure 4 as percentages of early apoptotic cells (Annexin V-positive/PI-negative staining), late apoptotic and necrotic cells (Annexin V-positive/PI-positive staining), and dead cells (Annexin V-negative/PI-positive staining). By the current test (BD Pharmingen protocol)[39] for the cells which are already dead (Annexin V-negative/PI-positive staining), we cannot distinguish between types of the occurred cell death.
# Quantitative analysis of apoptotic and necrotic cell death induced by the investigated complexes and CDDP was performed by Annexin V-FITC/PI assay. 2 × 10^5 HCT116 or 3 × 10^5 LS-174 cells were seeded into six-well plates (Thermo Scientific Nunc), and after 24 h of growth, cells were treated with tested compounds or CDDP. Following the 24 h and 48 h incubation time, cells were harvested and resuspended in 200 μL 1 × Binding Buffer (10 mM HEPES/NaOH pH 7.4, 140 mM NaCl, 2.5 mM CaCl2). 100 μL of the cell suspension (∼1 × 10^5 cells) was transferred to a 5 mL round-bottom polystyrene tube (Falcon, Corning) and mixed with 5 μL of both FITC Annexin V (BD Pharmingen[39]) and PI (50 μg/mL in PBS).[65] […] Samples were analyzed using an FACS BD Calibur flow cytometer (Becton–Dickinson, Heidelberg Germany) and Cell Quest computer software.
SMILES,"IC50 (MRC-5; Homo sapiens, MRC5, 72 h continuous drug action) [µM]","IC50 (A549; Homo sapiens, A549, 72 h continuous drug action) [µM]","IC50 (LS-174; Homo sapiens, LS174, 72 h continuous drug action) [µM]",stability by UV-vis absorption spectra [1],Solubility in water/1% DMSO [2] [mg mL^–1],IC50 (MRC-5; 72 h continuous drug action) [µM],IC50 (A549; 72 h continuous drug action) [µM],IC50 (HCT116) [µM],IC50 (MDA-MB-361) [µM],IC50 (LS-174; 72 h continuous drug action) [µM],IC50 (HCT116 MCTS) [µM],IC50 (LS-174 MCTS) [µM],early apoptotic cells (Annexin V-positive/PI-negative) (HCT116 cells) [%]
O=C1NCCc2ccccc2-c2[nH]c3ccc(/N=C/c4ccccn4)cc3c21 [HL^1],168 ± 15.8,> 200,191 ± 5.8,–,–,–,–,–,–,–,–,–,–
Cc1ccc(C(C)C)cc1.O=C1NCCc2ccccc2-c2[nH]c3ccc([N+]4=Cc5cccc[n+]5[Os-]4[Cl])cc3c21.[Cl-] [1b],–,–,–,remained intact,≥ 1.0,84.8 ± 6.6,91 ± 9.3,40.2 ± 6.7,71.9 ± 2.6,182 ± 2.1,–,–,–
Cc1ccc(C(C)C)cc1.O=C1NCCc2ccccc2-c2[nH]c3ccc([N+]4=Cc5cccc[n+]5[Ru-]4[Cl])cc3c21.[Cl-] [1a],–,–,–,remained intact,–,89.8 ± 2.1,160 ± 18.2,32.9 ± 7.1,91.2 ± 3.5,> 200,–,–,–
"N.N.[Cl][Pt][Cl] [CDDP, cis-diamminedichloridoplatinum(II), reference compound]",–,–,–,–,–,8 ± 1.1,17.4 ± 3.5,13.6 ± 1.1,26.4 ± 3.7,19 ± 0.5,19.6 ± 2.2,17.8 ± 1.2,19.14
